Values of other authors, collected in patent US9676702B2, “Methods for synthesizing amatoxin building block and amatoxins” (Heidelberg Pharma GmbH, priority 2012, dated 2017).
pKd: −log10 of the molar value.

Molecular target: RNA-polymerase II (Homo sapiens, UniProt P24928+P30876)
Conditions: non-covalent complex; background statement, no method given; read-out: KD of the complex between amanitin and RNA-polymerase II

In the case of amanitin, the pKd is given as 8.52.
